pIC50: −log10 of the molar value. Counter-ions that a name gives are not always drawn.
Tests used:
VEGFR2 = target: T1, VEGFR2 (Homo sapiens, UniProt P35968); assay: VEGFR2 Kinase-Glo kinase assay; format: biochemical; conditions: GST-VEGFR2, 1 μM ATP, 30° C. 120 minutes
T1 construct: The recombinant GST-VEGFR2 (residues V789-V1356) containing kinase domain; GST; made in house; host or cells: Sf9 insect cells
Method: The recombinant GST-VEGFR2 (residues V789-V1356) containing kinase domain was expressed in Sf9 insect cells. The kinase assay was carried out in 96-well plates with tested compound in a final volume of 50 μl reaction at 30° C. for 120 minutes with following components: 25 mM HEPES pH 7.4, 10 mM MgCl2, 4 mM MnCl2, 0.5 mM Na3VO4, 2 mM DTT, 0.02% Triton X100, 0.01% BSA, 1 μM ATP, 2 μM polyGlu4:Tyr peptide, 50˜100 ng recombinant VEGFR2. Following incubation, 50 μl Kinase-Glo Plus Reagent (Promega, Madison, Wis., USA) was added to each well and the mixture was incubated at 25° C. for 20 min. A 70-μL aliquot of each reaction mixture was transferred to a black microtiter plate and the luminescence was measured on Wallac Vector 1420 multilabel counter (PerkinElmer, Shelton, Conn., USA).

MOLM-13 = MOLM-13 MTS cell viability assay; format: cell-based; conditions: Homo sapiens, leukemia cell line, 72 hours
Method: (§1) A study was carried out as follows to evaluate in vitro anticancer activity of certain compounds prepared according to EXAMPLE 1 using cell lines and MTS cell viability assays (MTS represents 3-(4,5-dimethylthiazol-2-yl)-5-(3-carboxymethoxyphenyl)-2-(4-sulfophenyl)-2H-tetrazolium).
(§2) Leukemia cell lines MOLM-13, MV4:11, and Kasumin-1 were purchased from American Type Culture Collection (ATCC, Manassas, Va., USA). The human gastrointestinal stromal tumor GIST-T1 cell line was purchased from Cosmo Bio Co., LTD (Tokyo, Japan). All leukemia cell lines were maintained in RPMI 1640 medium supplemented with 10% fetal bovine serum (FBS), 10 U/ml penicillin, and 10 µg/ml streptomycin at 37° C. and 5% CO2. The cell line GIST-T1 was cultured in DMEM medium supplemented with 10% FBS, 0.01% nonessential amino acids, 10 U/ml penicillin, and 10 µg/ml streptomycin.
(§3) Cells were seeded in 96-well culture plates at a density of 1×10^4 cells/100 μl/well in triplicates and were treated for 72 hours with an indicated concentration of test compound ranging from 1 nM to 10 μM. Colorimetric CellTiter 96® Aqueous One Solution Cell Proliferation assay (MTS assay; Promega, Madison, Wis., USA) was used to determine the cytotoxicity. The optical density at 492 nm was measured using a microplate photometer (Victor2; Perkin-Elmer, Waltham, Mass., USA). IC50 values were determined by MTS assay when cells were treated with test compound for 72 hours and calculated with GraphPad Prism 6. Each experiment was in triplicate.

MV4:11 = MV4:11 MTS cell viability assay; format: cell-based; conditions: Homo sapiens, leukemia cell line, 72 hours
Method: as §1, §2, §3

Kasumi-1 = Kasumi-1 MTS cell viability assay; format: cell-based; conditions: Homo sapiens, leukemia cell line, 72 hours
Method: as §1, §2, §3

GIST-T1 = GIST-T1 MTS assay; format: cell-based; conditions: Homo sapiens, GISTT1; gastrointestinal stromal tumor cell line, 72 hours
Method: as §1, §2
as §3, with “GIST-T1 cells” for “Cells”, “8000” for “1×10^4”

GIST430 = GIST430 cell proliferation assay; format: cell-based; conditions: Homo sapiens, 120 hours
Method: (§4) GIST882, GIST48 and GIST430 cells were all cultured in incubators maintained at 37° C. and 5% CO2. GIST882 was cultured in RPMI-1640 supplemented with 20% fetal bovine serum (FBS). GIST48 was cultured with F10 supplemented with 20% FBS, 0.5% Mito, serum extender (BD Bioscience, 355006) and 1% pituitary extract bovine (BD Bioscience 354123). GIST430 was cultured in IMDM supplemented with 20% FBS. GIST882, GIST430 and GIST48 cells were provided by Dr. Jonathan A. Fletcher (Harvard Medical School, US).
(§5) GIST cells (4×10^4) were treated with different dosage of compounds. The treated GIST882 cells were incubated for 144 hours and GIST48 and GIST430 cells were incubated for 120 hours at 37° C. in 5% CO2. Cell proliferation was determined by incubating the cells with […] (Clontech, Calif., US) for 1 hour. The absorbance was measured at 450 nm using SpectraMax M5 microplate reader (Molecular Devices, US).

GIST48 = GIST48 cell proliferation assay; format: cell-based; conditions: Homo sapiens, 120 hours
Method: as §4, §5

GIST882 = GIST882 cell proliferation assay; format: cell-based; conditions: Homo sapiens, 144 hours
Method: as §4, §5

T1 sequence (P35968 789-1356): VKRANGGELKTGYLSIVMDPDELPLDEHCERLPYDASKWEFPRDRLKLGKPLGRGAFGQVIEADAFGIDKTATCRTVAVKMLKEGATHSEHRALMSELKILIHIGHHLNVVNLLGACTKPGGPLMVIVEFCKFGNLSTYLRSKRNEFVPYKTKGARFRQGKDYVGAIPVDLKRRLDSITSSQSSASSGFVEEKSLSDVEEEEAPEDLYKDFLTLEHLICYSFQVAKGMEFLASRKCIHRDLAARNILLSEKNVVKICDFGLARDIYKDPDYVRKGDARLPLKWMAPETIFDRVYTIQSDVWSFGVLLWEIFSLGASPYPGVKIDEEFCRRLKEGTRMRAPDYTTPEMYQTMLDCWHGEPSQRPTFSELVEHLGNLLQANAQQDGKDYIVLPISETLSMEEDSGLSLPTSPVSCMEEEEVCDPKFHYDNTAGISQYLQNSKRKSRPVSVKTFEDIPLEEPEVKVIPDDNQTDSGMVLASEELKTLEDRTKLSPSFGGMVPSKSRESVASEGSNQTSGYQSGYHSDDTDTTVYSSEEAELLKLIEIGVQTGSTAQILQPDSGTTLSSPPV

| Compound | pIC50 (VEGFR2) | GI50 (MOLM-13) | GI50 (MV4:11) | GI50 (Kasumi-1) | GI50 (GIST-T1) | GI50 (GIST430) | GI50 (GIST48) | GI50 (GIST882) |
| --- | --- | --- | --- | --- | --- | --- | --- | --- |
| Cc1nc(Nc2ncc(-c3cccnc3)s2)cc(N2CCC(N(C)C)CC2)n1 [Compound 10, [6-(4-Dimethylamino-piperidin-1-yl)-2-methyl-pyrimidin-4-yl]-(5-pyridin-3-yl-thiazol-2-yl)-amine hydrochloride salt] | > 7.52 | – | – | – | – | – | – | – |
| CCN1CCN(c2cc(Nc3ncc(-c4cncnc4)s3)nc(C)n2)CC1 [Compound 12, [6-(4-Ethyl-piperazin-1-yl)-2-methyl-pyrimidin-4-yl]-(5-pyrimidin-5-yl-thiazol-2-yl)-amine hydrochloride salt] | – | 211 nM | 132 nM | 349 nM | 119 nM | – | – | – |
| Cc1nc(Nc2ncc(-c3cccnc3)s2)cc(N2CCN(CCO)CC2)n1 [Compound 9, 2-{4-[2-Methyl-6-(5-pyridin-3-yl-thiazol-2-ylamino)-pyrimidin-4-yl]-piperazin-1-yl}-ethanol hydrochloride salt] | > 7.52 | – | – | – | – | – | – | – |
| CCN1CCN(c2cc(Nc3ncc(-c4ccncc4)s3)nc(C)n2)CC1 [Compound 1, [6-(4-Ethyl-piperazin-1-yl)-2-methyl-pyrimidin-4-yl]-(5-pyridin-4-yl-thiazol-2-yl)-amine hydrochloride salt] | > 7.52 | 10 nM | 13 nM | 11 nM | 11 nM | 3.8 nM | 19 nM | 5 nM |
| CCN1CCN(c2cc(Nc3ncc(-c4cccnc4)s3)nc(C)n2)CC1 [Compound 7, [6-(4-Ethyl-piperazin-1-yl)-2-methyl-pyrimidin-4-yl]-(5-pyridin-3-yl-thiazol-2-yl)-amine hydrochloride salt] | – | 62 nM | 34 nM | 266 nM | 53 nM | 60 nM | 820 nM | 20 nM |

From patent publication US10300061B2, “Aminothiazole compounds as protein kinase inhibitors” (priority 2017, dated 2019)
